Entries after “also recorded” stand apart in the source; their conditions may differ.
Molecular target: D216V ATP-PRT (Mycobacterium tuberculosis, UniProt P9WMN1, D216V)
Assay type: biochemical

Compound | Inhibition of D216V ATP-PRT | Activation of D216V ATP-PRT
N[C@@H](Cc1c[nH]cn1)C(=O)O [L-His, L-histidine, reference compound] | no longer inhibited by L-His; also recorded: did not change D216 V activity | 
N[C@@H](Cc1cccs1)C(=O)O [TIH, 3-(2-thienyl)-L-alanine] |  | still activated by TIH

Source: publication PMC5545217 (Nature Communications, 2017)
